For one molecule, MIC results are on record in patent publication US20070027130A1, “Tricyclic 6-alkylidene-penem beta-lactamase inhibitors and beta-lactam antibiotic combination: a broad spectrum antibiotic” (priority 2005, published 2007).

Common to all, as to assay: MIC microbroth dilution
Format in all cases: cell-based
On the technique in general: Broth dilution looks for growth in wells or tubes with falling amounts of substance.

The subject of experiment [1] is C. freundii GC 4164 Inducible AmpC. The conditions noted are these: Citrobacter freundii, β-lactamase class C, MHBII, 35° C. 18 hr, read-out: Minimal Inhibitory Concentration. As to the method:
(§1) The in vitro activities of the antibiotics were determined by the microbroth dilution method as recommended by the National Committee for Clinical Laboratory Standards (NCCLS). (NCCLS. 2000. Methods for Dilution Antimicrobial Susceptibility Tests for Bacteria That Grow Aerobically; Approved Standards: M7-A5, vol. 19. National Committee for Clinical Laboratory Standards, Villanova, Pa.). Mueller-Hinton II broth (MHBII) (BBL Cockeysville, Md.), was used for the testing procedure. […]. The plates were incubated for 18-22 hours at 35 C. in ambient air.

Experiment [2] relates to E. cloacae GC 1712 AmpC-inducible. The conditions noted are these: Enterobacter cloacae, β-lactamase class C, MHBII, 35° C. 18 hr, read-out: Minimal Inhibitory Concentration. The protocol: as §1
For experiment [3], the system named is E. cloacae GC 7052 SHV-5, Amp C inducable. To be noted: Enterobacter cloacae, β-lactamase class A (ESBL), MHBII, 35° C. 18 hr, read-out: Minimal Inhibitory Concentration. As to the method: as §1
The test system of experiment [4] is E. cloacae GC 7065 TEM-26, SHV-12 Amp C inducable. To be noted: Enterobacter cloacae, β-lactamase class A (ESBL), MHBII, 35° C. 18 hr, read-out: Minimal Inhibitory Concentration. As to the method: as §1
A further experiment has as its system E. coli GC 1480 OXA-1. The conditions noted are these: Escherichia coli, GC1480OXA1, β-lactamase class D, MHBII, 35° C. 18 hr, read-out: Minimal Inhibitory Concentration. The protocol: as §1
Another experiment has as its system E. coli GC 1684 (TEM-10). The conditions noted are these: Escherichia coli, β-lactamase class A (ESBL), MHBII, 35° C. 18 hr, read-out: Minimal Inhibitory Concentration. As to the method: as §1
The subject of experiment [5] is E. coli GC 1695 (TEM-1 + TEM-10). To be noted: Escherichia coli, β-lactamase class A, A (ESBL), MHBII, 35° C. 18 hr, read-out: Minimal Inhibitory Concentration. The protocol:
as §1

For a further experiment, the system named is E. coli GC 2844 (none). To be noted: Escherichia coli, β-lactamase class none, MHBII, 35° C. 18 hr, read-out: Minimal Inhibitory Concentration. As to the method: as §1
The test system of experiment [6] is E. coli GC 6260 (TEM-1 + SHV-5). The conditions noted are these: Escherichia coli, β-lactamase class A, A (ESBL), MHBII, 35° C. 18 hr, read-out: Minimal Inhibitory Concentration. As to the method: as §1
Experiment [7] concerns K. pn GC 1507 (TEM-9 + SHV-1). To be noted: Klebsiella pneumoniae, β-lactamase class A, A (ESBL), MHBII, 35° C. 18 hr, read-out: Minimal Inhibitory Concentration. As to the method: as §1
The subject of a further experiment is K. pn GC 1832 (SHV-4). To be noted: Klebsiella pneumoniae, β-lactamase class A (ESBL), MHBII, 35° C. 18 hr, read-out: Minimal Inhibitory Concentration. The protocol:
as §1

For experiment [8], the system named is K. pn GC 2006 (TEM-10 + SHV-1). To be noted: Klebsiella pneumoniae, β-lactamase class A, A (ESBL), MHBII, 35° C. 18 hr, read-out: Minimal Inhibitory Concentration. The protocol: as §1
The subject of experiment [9] is K. pn GC 2391 (pl 5.4; 5.6; 7.6; 8.7 B-lactamases). The conditions noted are these: Klebsiella pneumoniae, β-lactamase class A, A (ESBL), C (presumed), MHBII, 35° C. 18 hr, read-out: Minimal Inhibitory Concentration. The protocol: as §1
For experiment [10], the system named is K. pn GC 6494 (TEM-1 + SHV-5). The conditions noted are these: Klebsiella pneumoniae, β-lactamase class A, A (ESBL), MHBII, 35° C. 18 hr, read-out: Minimal Inhibitory Concentration. The protocol:
as §1

The next experiment deals with K. pn GC 6639 (SHV-13). To be noted: Klebsiella pneumoniae, β-lactamase class A (ESBL), MHBII, 35° C. 18 hr, read-out: Minimal Inhibitory Concentration. The protocol: as §1
Experiment [11] deals with K. pn GC 6655 (TEM-1 + ACT-1). The conditions noted are these: Klebsiella pneumoniae, β-lactamase class A, C, MHBII, 35° C. 18 hr, read-out: Minimal Inhibitory Concentration. As to the method: as §1
Experiment [12] relates to K. pneumoniae GC 7635 SHV-1, KPC2. To be noted: Klebsiella pneumoniae, β-lactamase class A, A (Cb'ase), MHBII, 35° C. 18 hr, read-out: Minimal Inhibitory Concentration. The protocol:
as §1

The test system of experiment [13] is K. pneumoniae GC 7822 Act 1. To be noted: Klebsiella pneumoniae, GC7822ACT1, β-lactamase class C, MHBII, 35° C. 18 hr, read-out: Minimal Inhibitory Concentration. As to the method:
as §1

For experiment [14], the system named is K. pneumoniae GC 7824 Fox 5. To be noted: Klebsiella pneumoniae, GC7824FOX5, β-lactamase class C, MHBII, 35° C. 18 hr, read-out: Minimal Inhibitory Concentration. As to the method:
as §1

Experiment [15] relates to P. aeruginosa GC 1763 AmpC-inducible. The conditions noted are these: Pseudomonas aeruginosa, β-lactamase class C, MHBII, 35° C. 18 hr, read-out: Minimal Inhibitory Concentration. As to the method: as §1
The test system of experiment [16] is P. aeruginosa GC 3153 Inducible AmpC. To be noted: Pseudomonas aeruginosa, β-lactamase class C, MHBII, 35° C. 18 hr, read-out: Minimal Inhibitory Concentration. The protocol:
as §1

For experiment [17], the system named is P. aeruginosa GC 4161 Stably derepressed AmpC. To be noted: Pseudomonas aeruginosa, 18 h, read-out: Minimal Inhibitory Concentration. The protocol:
as §1

The test system of experiment [18] is P. aeruginosa PT 9587 PTZ-R. To be noted: Pseudomonas aeruginosa, PT9587PTZR; P. aeruginosa PT 9587, piperacillin-tazobactam-resistant; MHBII, 35° C. 18 hr; read-out: Minimal Inhibitory Concentration. The protocol:
as §1

Experiment [19] concerns S. marcescens GC 1781 (Sme-1 + AmpC). To be noted: Serratia marcescens, β-lactamase class A (Cb'ase), C, MHBII, 35° C. 18 hr, read-out: Minimal Inhibitory Concentration. The protocol:
as §1

Values after ≈ are worked out from the molar mass of the structure shown. Bounds are passed on as bounds.

Regarding `CO/N=C(\C(=O)N[C@@H]1C(=O)N2C(C(=O)[O-])=C(C[N+]3(C)CCCC3)CS[C@H]12)c1csc(N)n1` [Cefepime], the MIC in experiment [1] is 2 µg/mL (≈ 4.16 µM); in experiment [2] it was 0.25 µg/mL (≈ 0.52 µM); in experiment [3], 8 µg/mL (≈ 16.6 µM); in [4], 16 µg/mL (≈ 33.3 µM); in the experiment with E. coli GC 1480 OXA-1, 4 µg/mL (≈ 8.32 µM); in the experiment with E. coli GC 1684 (TEM-10) it was above 16 µg/mL. Also, the MIC in experiment [5] is 16 µg/mL (≈ 33.3 µM); with E. coli GC 2844 (none), 0.06 µg/mL (≈ 0.125 µM); in [6], above 16 µg/mL; in experiment [7], 8 µg/mL (≈ 16.6 µM); with K. pn GC 1832 (SHV-4) it was 2 µg/mL (≈ 4.16 µM); in experiment [8] it was above 16 µg/mL. For the same molecule, the MIC was 8 µg/mL (≈ 16.6 µM) in experiment [9]; 4 µg/mL (≈ 8.32 µM) in experiment [10]; 8 µg/mL (≈ 16.6 µM) in the experiment on K. pn GC 6639 (SHV-13); 1 µg/mL (≈ 2.08 µM) in [11]; above 16 µg/mL in [12]; above 16 µg/mL in [13]. For the same molecule, the MIC in experiment [14] was 2 µg/mL (≈ 4.16 µM); in experiment [15], 2 µg/mL (≈ 4.16 µM); in [16], 16 µg/mL (≈ 33.3 µM); in experiment [17] it was above 16 µg/mL; in [18], 4 µg/mL; in experiment [19], 0.06 µg/mL (≈ 0.125 µM).
